In patent US20210379199A1, “COPPER NANOCLUSTERS, COMPOSITION COMPRISING THE SAME, AND TREATMENT OF NEURODEGENERATIVE DISEASES” (Shenzhen Profound-View Pharma Tech Co., Ltd, priority 2019, published 2021):

Assays:
RGC-5 cells = assay: H2O2-induced glaucoma cell (RGC-5) model, CCK-8 cell viability; type: cell-based; settings: 20 ppm of GSH and 100 μM of H2O2, 24 hours
Protocol: RGC-5 cells in logarithmic growth phase were diluted with complete medium (DMEM medium+10% FBS+1% penicillin-streptomycin) into a cell suspension with a density of 5×10^4/mL, inoculated with 100 μL per well in 96-well plates. The cells were cultured at 37° C. in a 5% CO2 incubator. After the cells were attached, the original culture solution was discarded, and 50 μL of different concentrations of CuNCs prepared from maintenance medium (DMEM medium+2% FBS+1% penicillin-streptomycin) were added to different wells. The final concentrations were 0.5, 5 and 20 ppm respectively (i.e. groups 5, 6, 7 respectively in FIG. 19). After pretreatment for 2 h, about 50 μL of H2O2 (final concentration of 105 μM) was added. The cells were incubated for 24 h, and 10% CCK-8 was added to each well for 4 h. The absorbance values of the respective wells were measured at the wavelength of 450 nm to evaluate the protection effect of CuNCs against H2O2-induced damages. In the above experiments, provided were a blank control group in which cells were not treated, a model control group in which cells were treated with 105 μM H2O2, a CuNCs control group in which 100 ppm of CuNCs were added but no H2O2 was added, and a ligand control group in which 20 ppm ligand and 105 μM H2O2 were added (i.e. groups 1, 2, 3, 4 respectively in FIG. 19).

α-syn = biological target: T1, α-syn (Homo sapiens, UniProt P37840); assay: α-syn aggregation kinetics, ThT fluorescent labeling; type: biochemical; settings: 35 μM α-syn, 5 ppm CuNCs or ligand alone, 37° C., 70 hours
T1 construct: purchased Bachem Corp
Protocol: CuNCs modified with different ligands were prepared according to literatures. Thioflavin T (abbreviation: ThT) is a highly sensitive fluorescent marker used to identify the presence of amyloid. […] When ThT encounters amyloid polypeptide or protein with a fiber structure, it will immediately adjacent to the amyloid polypeptides or proteins and its fluorescence intensity will increase exponentially. Therefore, ThT is widely used as a maker to monitor amyloidosis of peptides or proteins. This embodiment adopts ThT fluorescent labeling method to monitor the kinetics process of fibrosis aggregation of α-syn in the presence of CuNCs. The specific experiment method is as follows.
Pretreatment of α-syn monomers: Dissolve freeze-dried α-syn powder (Bachem Corp.) in HFIP to obtain a 1 g/L α-syn solution. […]
Sample preparation and detection: Add ligand modified CuNCs to α-syn PBS solution to reach final concentrations of 5 ppm and 35 μM for CuNCs and α-syn, respectively. Incubate the solution continuously in a 96-well plate at 37° C., monitor the fluorescence intensity by microplate reader every 10 minutes, and characterize the kinetics process of α-syn aggregation through the change of fluorescence intensity of ThT. […]

SH-sy5y cells = assay: MPP+ induced PD cells (SH-sy5y) model, CCK-8 cell viability; settings: 1 mM MPP+, ligand 20 ppm, 24 h
Protocol: 1) Take SH-sy5y cells in the logarithmic growth phase. Dilute them with complete medium to form a cell suspension with a cell density of 5×10^4/mL. Plate 200 μl of the cell suspension into each well of a 96-well plate and cultivate in an environment of 37° C. and 5% CO2 in an incubator. The sample is added after the cells are attached.
2) Add 100 μL of ligand-modified CuNCs samples or ligand-modified copper nanoparticles samples with different particle sizes, which are prepared using maintenance medium to make the final concentration being 0.1 ppm, 1 ppm, 5 ppm, 10 ppm and 20 ppm, respectively. After 2 hours of pretreatment with ligand-modified CuNCs, the different groups of cells were added with MPP^+ (final concentration is 1 mM). […] Then the cells were cultured at 37° C. for 24 h. After centrifugation to remove the culture medium, 100 μL maintenance medium containing 10% CCK-8 were added to each well, and then incubate for 4 h. The absorbance of each well was then measured at 450 nm. The absorbance could reflect the pre-protective and curative effects of ligand-modified CuNCs against MPP^+ lesion.

In the case of N[C@@H](CCC(=O)N[C@@H](CS)C(=O)NCC(=O)O)C(=O)O [GSH, L-glutathione], the “cell viability, ligand control group” value (RGC-5 cells) is reported as 56.5±5.9%, the “α-syn aggregation and fibrosis (ThT fluorescence intensity)” value (α-syn) is reported as “does not have an obvious effect” and the “cell viability, ligand control group” value (SH-sy5y cells) is reported as 56.9±3.4%.
